# “And” between values parts separate entries of the source, which are not always exact repeats. Equal entries are not always repeated. Where two headings read alike, the source gives them in different places.
# What was measured:
# [1] = tested on: Production of TNFα in THP-1 cells; assay: p38-dependent TNF production in THP-1 cells; format: cell-based
# [2] = tested on: TSLP production in NHBE cells; assay: TSLP HTRF assay (TSLP production in poly I:C / IL-4 stimulated NHBE cells); format: cell-based, human
# Method: For dose response curves determinations, stocks of test compounds at a concentration of 1.33x10^-3 M in DMSO were sequentially diluted at 1:4 dilution steps before further 1/50 dilution in BEBM medium containing 1x ITS and 0.1% BSA. For the highest 4 μM concentration test compounds were resuspended in DMSO at a concentration of 2.5x10^-3 M and diluted 1/25 in BEBM medium containing 1x ITS and 0.1% BSA before adding 1 μl to the wells containing the cells.
# All subsequent steps were automated using a Sciclone® G3 workstation (Perkin Elmer) with a Twister™ II robot (Perkin Elmer). […] 1 μl of test compound solution prepared at 25x concentration was added to the wells containing NHBE cells. The plates were then incubated during 90 minutes at 37°C, 5% CO2, 90% humidity before adding poly I:C (Invivogen HMW Tirl-pic-5) and human IL-4 (Peprotech 200–04) stimulus in 4 μl of BEBM medium containing 1x ITS, 0.1% BSA and 0.1% DMSO using a Multidrop™. […] Cells were then incubated for 24h in the presence of test compounds and stimulus at 37°C, 5% CO2 and 90% humidity conditions. After the 24h incubation period the plates were transferred to a CyBi®-Well platform (CyBio AG) to collect 10 μl of the supernatants which were transferred to a new plate. TSLP levels in the supernatant were determined using a homogeneous Time-Resolved Fluorescence (HTRF) assay custom developed by Cisbio. The assay was based in the use of a donor dye (europium cryptate) coupled to a monoclonal anti-TSLP antibody and an acceptor dye (d2) coupled to a second polyclonal anti-TSLP antibody. […] 10 μl of the resulting solution was then used to determine TSLP levels as described above.
# The standard curve was built with eight points prepared in ITS/BSA in BEBM medium without supplements, starting at 700 pg/ml and diluted 1:2, with medium alone being zero TSLP. Fitting model corresponded to equation 100 of Excel fit software. Data from the primary phenotypic screen was visualized using Vortex (Dotmatics). […] For compound selection the maximum inhibition of the two individual duplicate values was taken into account. Dose response confirmation was performed at single point in the 2 donors tested. 9 point curves were run starting at 4 μM concentration by doing serial 1:4 dilutions in cells derived from both donors.
# Flt3 = biological target: T1, Flt3 (Homo sapiens, UniProt P36888); assay: kinase selectivity panel; format: biochemical; details: read-out: percentage of control activity (POC), Flt3
# T1 construct: purchased Eurofins Pharma Discovery Services (KinaseProfiler; Cerep BioPrint panel)
# T1 sequence (P36888 27-993): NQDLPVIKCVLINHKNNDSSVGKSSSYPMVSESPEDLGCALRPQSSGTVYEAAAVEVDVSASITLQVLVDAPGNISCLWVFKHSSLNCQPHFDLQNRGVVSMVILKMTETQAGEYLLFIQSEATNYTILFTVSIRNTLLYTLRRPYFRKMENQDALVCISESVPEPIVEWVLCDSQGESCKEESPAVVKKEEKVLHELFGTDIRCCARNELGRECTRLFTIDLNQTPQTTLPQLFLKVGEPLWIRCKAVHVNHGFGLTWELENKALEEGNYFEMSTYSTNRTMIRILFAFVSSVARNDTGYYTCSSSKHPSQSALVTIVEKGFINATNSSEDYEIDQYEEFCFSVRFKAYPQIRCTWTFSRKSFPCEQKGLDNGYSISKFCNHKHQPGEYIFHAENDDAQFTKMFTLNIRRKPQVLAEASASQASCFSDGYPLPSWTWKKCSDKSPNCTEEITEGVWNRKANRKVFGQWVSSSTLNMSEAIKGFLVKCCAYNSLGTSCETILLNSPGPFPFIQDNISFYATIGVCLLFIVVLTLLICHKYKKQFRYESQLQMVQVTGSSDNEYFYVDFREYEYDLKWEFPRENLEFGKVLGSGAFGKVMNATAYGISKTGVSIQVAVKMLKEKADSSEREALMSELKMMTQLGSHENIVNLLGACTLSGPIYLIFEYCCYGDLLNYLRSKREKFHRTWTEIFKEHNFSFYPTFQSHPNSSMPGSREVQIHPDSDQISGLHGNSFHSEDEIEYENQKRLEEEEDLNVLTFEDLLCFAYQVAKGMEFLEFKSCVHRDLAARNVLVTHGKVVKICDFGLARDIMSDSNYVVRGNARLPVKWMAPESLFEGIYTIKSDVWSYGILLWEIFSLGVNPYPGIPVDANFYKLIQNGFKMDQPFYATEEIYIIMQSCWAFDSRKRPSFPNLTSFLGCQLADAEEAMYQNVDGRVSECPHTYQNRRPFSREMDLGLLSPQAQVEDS
# Method: (§1) Kinase selectivity was evaluated at Eurofins Pharma Discovery Services using a selection of 125 representative kinases tested at a concentration of 10 μM in duplicate (S3 Table). IC50 values for selected activities were further characterized at 9 duplicate concentrations. DNA-PK activity was determined at the SelectScreen® Biochemical kinase Profiling Service of Thermo Fisher Scientific.
# PKA = biological target: T2, PKA (Homo sapiens, UniProt P17612); assay: kinase selectivity panel; format: biochemical; details: read-out: percentage of control activity (POC), PKA
# T2 construct: purchased Eurofins Pharma Discovery Services (KinaseProfiler; Cerep BioPrint panel)
# Method: as §1
# JNK1α1 = biological target: T3, JNK1α1 (Homo sapiens, UniProt P45983); assay: kinase selectivity panel; format: biochemical; details: read-out: percentage of control activity (POC), JNK1α1
# T3 construct: purchased Eurofins Pharma Discovery Services (KinaseProfiler; Cerep BioPrint panel)
# T3 sequence (P45983 1-384 isoform P45983-2): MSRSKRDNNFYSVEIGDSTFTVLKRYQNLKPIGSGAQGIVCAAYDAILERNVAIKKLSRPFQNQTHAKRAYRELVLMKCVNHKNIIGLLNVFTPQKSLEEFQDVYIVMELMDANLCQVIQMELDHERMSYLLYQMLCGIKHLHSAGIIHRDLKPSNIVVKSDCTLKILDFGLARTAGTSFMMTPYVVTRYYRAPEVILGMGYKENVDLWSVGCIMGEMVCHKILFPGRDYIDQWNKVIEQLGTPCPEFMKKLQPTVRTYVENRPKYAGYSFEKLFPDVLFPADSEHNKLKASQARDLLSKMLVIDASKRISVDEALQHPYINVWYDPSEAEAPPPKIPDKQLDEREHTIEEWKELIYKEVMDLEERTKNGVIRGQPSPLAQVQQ
# Method: as §1
# eEF-2K = biological target: T4, eEF-2K (Homo sapiens, UniProt O00418); assay: kinase selectivity panel; format: biochemical; details: read-out: percentage of control activity (POC), eEF-2K
# T4 construct: purchased Eurofins Pharma Discovery Services (KinaseProfiler; Cerep BioPrint panel)
# Method: as §1
# LOK = biological target: T5, LOK (Homo sapiens, UniProt O94804); assay: kinase selectivity panel; format: biochemical; details: read-out: percentage of control activity (POC), LOK
# T5 construct: purchased Eurofins Pharma Discovery Services (KinaseProfiler; Cerep BioPrint panel)
# T5 sequence (O94804 whole entry): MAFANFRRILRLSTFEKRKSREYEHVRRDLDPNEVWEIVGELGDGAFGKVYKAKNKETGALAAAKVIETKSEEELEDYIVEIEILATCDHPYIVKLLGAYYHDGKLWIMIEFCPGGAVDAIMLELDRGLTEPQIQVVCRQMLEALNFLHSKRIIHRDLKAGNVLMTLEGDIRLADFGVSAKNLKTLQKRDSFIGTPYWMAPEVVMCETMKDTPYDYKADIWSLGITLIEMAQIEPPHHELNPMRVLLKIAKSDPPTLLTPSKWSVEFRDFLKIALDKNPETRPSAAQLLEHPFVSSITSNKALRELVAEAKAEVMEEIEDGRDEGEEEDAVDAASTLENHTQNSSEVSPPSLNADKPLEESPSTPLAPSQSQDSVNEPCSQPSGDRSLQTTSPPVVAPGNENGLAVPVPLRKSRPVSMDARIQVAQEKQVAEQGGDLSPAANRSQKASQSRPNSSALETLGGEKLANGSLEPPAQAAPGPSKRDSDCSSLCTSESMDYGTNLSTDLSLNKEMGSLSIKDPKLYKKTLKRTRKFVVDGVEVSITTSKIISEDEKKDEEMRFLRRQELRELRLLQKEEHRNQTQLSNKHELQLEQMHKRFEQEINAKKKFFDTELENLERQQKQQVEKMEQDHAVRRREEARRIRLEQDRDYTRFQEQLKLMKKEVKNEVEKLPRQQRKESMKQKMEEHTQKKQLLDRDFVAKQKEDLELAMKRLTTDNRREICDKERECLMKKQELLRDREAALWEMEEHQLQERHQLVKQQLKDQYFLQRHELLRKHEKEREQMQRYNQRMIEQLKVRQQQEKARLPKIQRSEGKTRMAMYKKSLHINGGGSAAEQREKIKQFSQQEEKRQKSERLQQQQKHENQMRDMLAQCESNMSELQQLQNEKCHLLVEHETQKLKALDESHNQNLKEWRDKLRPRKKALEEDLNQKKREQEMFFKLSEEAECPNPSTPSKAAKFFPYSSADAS
# Method: as §1
# Syk = Syk (Homo sapiens, UniProt P43405); assay: kinase selectivity panel; format: biochemical; details: read-out: percentage of control activity (POC), Syk
# Method: as §1
# [3] = tested on: TSLP mRNA levels in NHBE cells; assay: TSLP mRNA real-time PCR (qPCR) in NHBE cells; format: cell-based, human; set-up: TSLP mRNA upregulation (% versus control) / % Inhibition of mRNA: dose or concentration left out as unconfirmed; details: for % Inhibition of mRNA at [4 μM] ± SD: NHBE donor #1, 6 h stimulation; for % Inhibition of mRNA: individual values, donor #1
# [4] = Homo sapiens, THP-1, geometric mean, read-out: Activity in reference cell based assay (IC50, μM) (95% CI) Production of TNFα in THP-1 cells
# [5] = Homo sapiens, THP-1, individual values, read-out: Cellular activity (IC50, mM) TNFa production in THP-1
# [6] = Homo sapiens, NHBE, 24 h, NHBE cells donor #1, poly I:C / IL-4, 24h, geometric mean, read-out: Inhibition of TSLP protein production (IC50, μM) (95% CI)
# [7] = individual values, donor #1, read-out: Inhibition of TSLP production in NHBE (IC50)
SMILES,"IC50 [1, 4]","IC50 [1, 5]","IC50 [2, 6]","IC50 [2, 7]",remaining activity at 10 µM (Flt3),remaining activity at 10 µM (PKA),remaining activity at 10 µM (JNK1α1),remaining activity at 10 µM (eEF-2K),remaining activity at 10 µM (LOK),remaining activity at 10 µM (Syk),% Inhibition of mRNA at [4 μM] ± SD [3],% Inhibition of mRNA [3],"IC50 ([1]; individual values, read-out: Cellular activity (IC50, mM) TNFa production in THP-1)","IC50 ([2]; Homo sapiens, NHBE, individual values, donor #1, read-out: Inhibition of TSLP production in NHBE (IC50))"
CC(C)(C)N1CCC(c2cc(-c3ccc(F)cc3Cl)c3cc[n+]([O-])c(-c4c(Cl)cccc4Cl)c3n2)CC1 [compound 2],0.0004 µM,0.00045 µM,0.022 µM,0.023 µM and 0.009 µM and 0.055 µM,104%,109%,97%,115%,107%,95%,79.69 ± 4.76%,83.056% and 76.316%,,
Cc1ccc(C(=O)NCC2CC2)cc1-c1ccc2c(c1)NC(=O)C21CCCC1 [compound 3],0.001 µM,0.00242 µM,0.172 µM,0.211 µM and 0.131 µM,110%,99%,96%,111%,112%,101%,80.07 ± 0.48%,80.414% and 79.735%,0.00132 µM,0.186 µM
Cn1cc(-c2cccc(-c3nc(C(=O)NC4C5CC6CC4CC(O)(C6)C5)c(N)nc3N)c2)cn1 (centres unmarked) [compound 4],,,0.075 µM,0.052 µM and 0.037 µM and 0.178 µM and 0.1 µM and 0.036 µM and 0.147 µM,95%,100%,92%,115%,109%,66%,90.44 ± 0.24%,90.608% and 90.263%,,
CS(=O)(=O)N1CCN(c2ccc(Nc3ncc(C(N)=O)c(NC4CC4)n3)cc2)CC1 [compound 5],,,0.043 µM,0.026 µM and 0.048 µM and 0.028 µM and 0.054 µM and 0.083 µM,1%,26%,3%,97%,14%,0%,99.76 ± 0.12%,99.853% and 99.672%,,
"COc1c(NC(=O)c2ccc(C)c(-c3nnc4c(NCC(C)(C)C)nccn34)c2)cc(C(C)(C)C)cc1NS(C)(=O)=O [compound 7, reference compound]",0.002 µM,0.002 µM,0.738 µM,0.486 µM and 0.72 µM and 1.15 µM,110%,109%,96%,128%,135%,86%,,,,

# From article PMC5761851, “Application of a phenotypic drug discovery strategy to identify biological and chemical starting points for inhibition of TSLP production in lung epithelial cells” (PLoS ONE, 2018)
